SMILES strings stand for the structures. Values joined by “and” are separate entries in the source; they are usually repeats but may differ in a detail not shown here. Equal entries are not always repeated. Where two headings read alike, the source gives them in different places. Some results are limits rather than exact numbers.

The text below walks through data of publication PMC9235892 (Virulence, 2022).

The test system of data set [1] is SARS-CoV-2. The data set is described as follows: microbe, parasite or virus in culture. Format: cell-based. Particulars: for EC50: Severe acute respiratory syndrome coronavirus 2, 60 h, read-out: half maximal effective concentration (EC50), 50% CPE inhibition.
In data set [2] the test system is SARS-CoV-2. Format: cell-based.
Data set [3] has as its system SARS-CoV-2. Format: cell-based. This is another data set of the same source.
In data set [4] the test system is SARS-CoV-2. The format is cell-based. The source holds these as a separate data set.
The test system of data set [5] is SARS-CoV-2. Format: cell-based. This is another data set of the same source.
In data set [6] the test system is SARS-CoV-2. Format: cell-based. This is another data set of the same source.
In data set [7] the test system is SARS-CoV-2. The format is cell-based. This is another data set of the same source.
The subject of another data set is HEK293T. The data set is described as follows: MTT assay in HEK293T. The settings on record: 10 µM and 32 µM. Format: cell-based, human.
A further data set concerns HuH7.5. The data set is described as follows: MTT assay in HuH7.5. The settings on record: HuH7.5, 10 µM and 32 µM. The format is cell-based, human.
Another data set has as its system Caco-2. The data set is described as follows: MTT assay in Caco-2. The format is cell-based, human. Particulars: Caco-2, 10 µM and 32 µM.
The subject of another data set is Calu-3. The data set is described as follows: MTT assay in Calu-3. Particulars: Calu-3, 10 µM and 32 µM. Format: cell-based, human.
A further data set has as its system SARS-CoV-2 B.1. Format: cell-based.
For data set [8], the system named is SARS-CoV-2.
For data set [9], the system named is intracellular cholesterol traffic. Format: cell-based, African green monkeys.
The next data set deals with HEK293T cells. Format: cell-based, human.
The next data set can be described thus: Pharmacokinetics in mice. Format: in vivo, CD1 mice. The procedure:
In vivo pharmacokinetics assessment of LNB167 was performed at the Center of Innovation and Preclinical Studies (CIEnP, Brazil) under contract. LNB167 was tested in adult male CD1 mice (n = 5) bred under Specific Pathogen Free conditions at doses of 60 mg/kg (p.o.) or 6 mg/kg (I.V.). Results were reported according to ARRIVE (Animal Research Reporting In Vivo Experiments) [[22–24]]. The pharmacokinetics parameters were determined using the software Phoenix® WinNonlin® (version 7.0).

The nature of data set [10]: Potential toxicity of LNB167 in mice. The format is in vivo, FVB male mice. The settings on record: oral gavage. How it is done: Adult FVB male mice bred and maintained at the Animal Facility of LOM at LNBio/CNPEM were weighed and divided into three groups (n = 5): vehicle (5% ethanol, 45% PEG400, 5% TWEEN®80, 45% saline), LNB167 60 mg/kg, and LNB167 300 mg/kg. Mice received one dose daily for 6 days by oral gavage. Animals were weighed and monitored daily for signs of potential compound toxicity including loss of movement, ruffled fur, ear position, eye shape, and death.

For data set [11], the system named is SARS-CoV-2. The settings on record: in vivo.

For `C[C@]12CC[C@H](O)CC1CCC1C2CC[C@]2(C)C(=O)[C@H](Br)CC12` (some centres unmarked) [16a-bromoepiandrosterone, reference compound], the “cytoprotective activity against SARS-CoV-2” value in the data set on SARS-CoV-2 [1] is listed as “did not display cytoprotective activity”.

On to `CCN(CC)CCCC(C)Nc1ccnc2cc(Cl)ccc12` (centres unmarked) [Chloroquine, reference compound], for which the EC50 in the data set with SARS-CoV-2 [1] was found to be 5.9 µM.

With `C[C@]12CC[C@H](O)C[C@@H]1CC[C@@H]1[C@@H]2CC[C@]2(C)C(=O)CC[C@@H]12` [Epiandrosterone, reference compound], the “cytoprotective activity against SARS-CoV-2” value with SARS-CoV-2 [1] is recorded as “did not display cytoprotective activity”.

Turning to `C[C@]12CC[C@H](OCCS(=O)(=O)N3CCOCC3)CC1CCC1C2CC[C@]2(C)C(=O)CCC12` (some centres unmarked) [FFNBio41], the EC50 with SARS-CoV-2 [1] is 5 µM. Besides, in the data set with SARS-CoV-2 [2], the “effect on viral load assessed by plaque assay” value (shortened to “effect … by plaque assay”) is given as “no effect”. Further, in the data set with Vero CCL81 cells, the “toxicity, MTT assay” value is recorded as “not cytotoxic”.

For the molecule `CN1CCN(CC(=O)O[C@H]2CC[C@@]3(C)C(CCC4C3CC[C@]3(C)C(=O)CCC43)C2)CC1` (some centres unmarked) [FFNBio42], in the data set with SARS-CoV-2 [1], the EC50 amounted to 4.7 µM. In the data set with SARS-CoV-2 [2], the “fold reduction in infectious virus (plaque assay) vs vehicle-treated control” value (from here on “fold reduction in infectious virus”) worked out at 10 fold. For the same molecule, in the data set with SARS-CoV-2 [3], the “fold reduction in viral RNA levels (RT-qPCR) vs vehicle-treated control” value (shortened to “fold reduction in viral RNA levels”) was 10 fold. For the same molecule, the “toxicity, MTT assay” value in the data set on Vero CCL81 cells was “not cytotoxic”.

As for `C[C@]12CC[C@H](OC(=O)CN3CCOCC3)CC1CCC1C2CC[C@]2(C)C(=O)CCC12` (some centres unmarked) [LNB149], the “half maximal effective concentration (EC50), 50% CPE inhibition” value in the data set on SARS-CoV-2 [1] is “mid micromolar range”.

Turning to `C[C@]12CC[C@H](OC[C@@H](O)CN3CCOCC3)CC1CCC1C2CC[C@]2(C)C(=O)CCC12` (some centres unmarked) [LNB166], the “half maximal effective concentration (EC50), 50% CPE inhibition” value in the data set with SARS-CoV-2 [1] is “mid micromolar range”.

Take `CN1CCN(C[C@H](O)CO[C@H]2CC[C@@]3(C)C(CCC4C3CC[C@]3(C)C(=O)CCC43)C2)CC1` (some centres unmarked) [LNB167]: the EC50 with SARS-CoV-2 [1] came to 0.9 µM. For the same molecule, the “effect … by plaque assay” value in the data set with SARS-CoV-2 [2] was “potent inhibition of SARS-CoV-2 replication”. Moreover, the “fold reduction in infectious virus” value in the data set on SARS-CoV-2 [2] was 1000 fold. Moreover, the “fold reduction in viral RNA levels” value in the data set with SARS-CoV-2 [3] is given as approximately 100 fold. Further, the “effect on levels of viral RNA (RT-qPCR)” value with SARS-CoV-2 [4] was “did not reduce levels of viral RNA”. Further, the “fold reduction in viral load (RT-qPCR, viral RNA)” value in the data set on SARS-CoV-2 [5] was not above 1000 fold. The “effect on SARS-CoV-2 viral load” value in the data set with SARS-CoV-2 [6] and in the data set on SARS-CoV-2 [7] was “no effect” throughout. The “toxicity, MTT assay” value is on record as “not toxic” in the data set on HEK293T; “not toxic” in the data set on HuH7.5; “not toxic” with Caco-2; “not toxic” with Calu-3; “not cytotoxic” in the data set with Vero CCL81 cells (10 µM and 32 µM, Vero CCL81). Moreover, the “fold reduction in infectious viral progeny (plaque assay), time of addition” value in the data set with SARS-CoV-2 B.1 is given as “up to 100 fold”. The “fold reduction in viral load (RT-qPCR), time of addition” value with SARS-CoV-2 B.1 was “approximately 10 fold”. Besides, the “time of addition after infection giving maximum antiviral activity” value in the data set with SARS-CoV-2 B.1 is recorded as not above 8 h. Moreover, in the data set on SARS-CoV-2 [8], the “virucidal activity against SARS-CoV-2” value is on record as “neither LNB167 nor LNB169 were virucidal”. In addition, the “cholesterol distribution, filipin III staining” value in [9] is “formation of puncta that were identical to those observed in U18666A-treated cells”. Also, the “up-regulated pathways (RNASeq), SARS-CoV-2-infected cells” value with HEK293T cells is “upregulation of multiple pathways involving metabolism and biosynthesis of both membrane lipids and cholesterol”. Further, the “up-regulated pathways (RNASeq), non-infected cells” value in the data set with HEK293T cells is “upregulation of membrane lipids and cholesterol metabolic and biosynthetic pathways”. The bioavailability in “Pharmacokinetics in mice” (male, CD1, mouse, plasma, oral, 60 mg/kg p.o. (6 mg/kg I.V.)) is 66.3%. This molecule also had a half-life in the data set “Pharmacokinetics in mice” (male, CD1, mouse, plasma, po, single dose of 60 mg/kg given orally) of 2.67 h. The volume of distribution in “Pharmacokinetics in mice” (single dose of 60 mg/kg given orally) was found to be 63.17 L/kg. Besides, the maximum plasma concentration in the data set “Pharmacokinetics in mice” (single dose of 60 mg/kg given orally, 60 mg/kg) was 498.69 ng/ml and 1.1 µM. Also, the signs of toxicity entry in [10] (60 mg/Kg once a day for 6 days) was “No signs of toxicity”; in data set [10] (300 mg/Kg once a day for 6 days), “moderate weight loss and ruffled fur”. Further, the “viral load recovered from infected mouse lungs (plaque assay or RT-qPCR)” value in the data set with SARS-CoV-2 [11] is “did not reduce the viral load”. The “histological analysis of lung sections” value with SARS-CoV-2 [11] (mouse) was “alterations in tissue architecture that were more pronounced in the context of SARS-CoV-2 infection”. Moreover, the “protection from disease development induced by SARS-CoV-2” value in the data set on SARS-CoV-2 [11] (mouse) is on record as “did not protect from disease development”. Further, in the data set with SARS-CoV-2 [11] (mouse, 120 mg/kg), the average weight loss is on record as 15%.

On to `C[C@]12CC[C@H](OC[C@H](O)CN3CCOCC3)CC1CCC1C2CC[C@]2(C)C(=O)CCC12` (some centres unmarked) [LNB168], for which, in the data set with SARS-CoV-2 [1], the “half maximal effective concentration (EC50), 50% CPE inhibition” value is on record as “mid micromolar range”.

As to `CN1CCN(C[C@@H](O)CO[C@H]2CC[C@@]3(C)C(CCC4C3CC[C@]3(C)C(=O)CCC43)C2)CC1` (some centres unmarked) [LNB169], the EC50 with SARS-CoV-2 [1] came to 3.8 µM. Besides, the “effect … by plaque assay” value in the data set on SARS-CoV-2 [2] is “potent inhibition of SARS-CoV-2 replication”. For the same molecule, the “fold reduction in infectious virus” value in the data set with SARS-CoV-2 [2] was 1000 fold. Also, in the data set with SARS-CoV-2 [3], the “fold reduction in viral RNA levels” value is listed as approximately 100 fold. Moreover, the “effect on levels of viral RNA (RT-qPCR)” value in the data set on SARS-CoV-2 [4] is listed as “did not reduce levels of viral RNA”. Moreover, the “fold reduction in viral load (RT-qPCR, viral RNA)” value with SARS-CoV-2 [5] is given as “approximately 100 fold”. For the same molecule, the “effect on SARS-CoV-2 viral load” value with SARS-CoV-2 [6] and in the data set with SARS-CoV-2 [7] was “no effect” in each case. Further, the “toxicity, MTT assay” value with HEK293T was “not toxic”; in the data set on HuH7.5, “not toxic”; in the data set with Caco-2 it was “not toxic”; in the data set on Calu-3 it was “not toxic”; with Vero CCL81 cells (10 µM and 32 µM, Vero CCL81) it was “not cytotoxic”. For the same molecule, the “fold reduction in infectious viral progeny (plaque assay), time of addition” value in the data set with SARS-CoV-2 B.1 is reported as “up to 100 fold”. For the same molecule, in the data set with SARS-CoV-2 B.1, the “fold reduction in viral load (RT-qPCR), time of addition” value is “approximately 10 fold”. For the same molecule, in the data set with SARS-CoV-2 B.1, the “time of addition after infection giving maximum antiviral activity” value is listed as not above 8 h. For the same molecule, the “virucidal activity against SARS-CoV-2” value in the data set with SARS-CoV-2 [8] was “neither LNB167 nor LNB169 were virucidal”.

Take `CN1CCN(CCC(=O)O[C@H]2CC[C@@]3(C)C(CCC4C3CC[C@]3(C)C(=O)CCC43)C2)CC1` (some centres unmarked) [LNB171]: the “half maximal effective concentration (EC50), 50% CPE inhibition” value with SARS-CoV-2 [1] is listed as “mid micromolar range”. In addition, in the data set with SARS-CoV-2 [2], the “effect … by plaque assay” value was “no effect”. For the same molecule, in the data set with SARS-CoV-2 [3], the “effect on viral load assessed by RT-qPCR” value was “no effect”. In addition, in the data set with Vero CCL81 cells, the “toxicity, MTT assay” value is listed as “not cytotoxic”.

As for `CCN(CC)CCO[C@H]1CC[C@@]2(C)C(=CC[C@@H]3[C@@H]2CC[C@]2(C)C(=O)CC[C@@H]32)C1.Cl` [U18666A, reference compound], the “cholesterol distribution, filipin III staining” value in data set [9] was “formation of puncta inside cells”.
